Measurements as given in ChEMBL document CHEMBL5126539, “Recent development of BTK-based dual inhibitors in the treatment of cancers” (Eur J Med Chem, 2022).

Tests used:
DOHH-2 [1] = test: Antitumor activity against human DOHH-2 cells xenografted in CB17/SCID mouse assessed as reduction in tumor growth at 30 mg/kg, po administered once daily in combination with idelalisib at 50 mg/kg for 30 days and measured twice a week relative to control; format: functional; design: scale not given: the % may be the effect or the level left; conditions: time 30 day
DOHH-2 [2] = test: Antitumor activity against human DOHH-2 cells xenografted in CB17/SCID mouse assessed as reduction in tumor growth at 15 mg/kg, po administered once daily in combination with idelalisib at 25 mg/kg for 30 days and measured twice a week relative to control; format: functional; design: scale not given: the % may be the effect or the level left; conditions: time 30 day
DOHH-2 [3] = test: Cytotoxicity against human DOHH-2 cells expressing BTK and PI3kdelta assessed as inhibition of cell growth incubated for 72 hrs by celltiter-glo assay; format: functional, cell-based; conditions: DOHH-2, 72 h
Tubulin (Homo sapiens) = Tubulin (Homo sapiens) (UniProt P68371+Q9H4B7+P0DPH7+P68366+Q13509+Q71U36+P04350+Q3ZCM7+P07437+P68363+Q9BQE3+Q6PEY2+Q13885+Q9BVA1+Q9BUF5); test: Inhibition of microtubule polymerization in human U-266 cells assessed as increase in phospho-Bcl2 expression at 10 uM measured upto 24 hrs by Western blot analysis relative to control; format: cell-based
RPMI-8226 = test: Cytotoxicity against human RPMI-8226 cells assessed as inhibition of cell growth incubated for 48 hrs by MTT assay; format: functional, cell-based; conditions: RPMI-8226, 48 h
U-266 [4] = test: Antitumor activity against human U-266 cells xenografted in BALB/c nude mouse assessed as tumor growth inhibition at 1 mg/kg, ip administered twice weekly and measured for 4 weeks by digital caliper analysis relative to control; format: functional; conditions: U-266, 672 h, read-out: TGI
[5] = target: T1, Tyrosine-protein kinase BTK (Homo sapiens, UniProt Q06187); test: Inhibition of N-terminal His tagged human recombinant full length BTK expressed in baculovirus infected Sf9 insect cells using Poly (4:1 Glu, Tyr) Peptide as substrate at 0.5 uM incubated for 60 mins by ADP-glo reagent based luminescence assay relative to control
[6] = Cytotoxicity against human MM.1 cells assessed as inhibition of cell growth incubated for 48 hrs by MTT assay; format: functional, cell-based; conditions: Mm1, 48 h
U-266 [7] = test: Cytotoxicity against human U-266 cells assessed as inhibition of cell growth incubated for 48 hrs by MTT assay; format: functional, cell-based; conditions: U-266, 48 h
DOHH-2 [8] = test: Antitumor activity against human DOHH-2 cells xenografted in CB17/SCID mouse assessed as reduction in tumor growth at 100 mg/kg, po administered twice daily for 30 days and measured twice a week relative to control; format: functional; design: scale not given: the % may be the effect or the level left; conditions: time 30 day
[9] = target: Tyrosine-protein kinase HCK (Homo sapiens, UniProt P08631); test: Inhibition of HCK (unknown origin)
[10] = target: T1, Tyrosine-protein kinase BTK; test: Inhibition of BTK (unknown origin)
[11] = target: T2, Tyrosine-protein kinase JAK3 (Homo sapiens, UniProt P52333); test: Inhibition of recombinant JAK3 (unknown origin)
T2 sequence (P52333 whole entry): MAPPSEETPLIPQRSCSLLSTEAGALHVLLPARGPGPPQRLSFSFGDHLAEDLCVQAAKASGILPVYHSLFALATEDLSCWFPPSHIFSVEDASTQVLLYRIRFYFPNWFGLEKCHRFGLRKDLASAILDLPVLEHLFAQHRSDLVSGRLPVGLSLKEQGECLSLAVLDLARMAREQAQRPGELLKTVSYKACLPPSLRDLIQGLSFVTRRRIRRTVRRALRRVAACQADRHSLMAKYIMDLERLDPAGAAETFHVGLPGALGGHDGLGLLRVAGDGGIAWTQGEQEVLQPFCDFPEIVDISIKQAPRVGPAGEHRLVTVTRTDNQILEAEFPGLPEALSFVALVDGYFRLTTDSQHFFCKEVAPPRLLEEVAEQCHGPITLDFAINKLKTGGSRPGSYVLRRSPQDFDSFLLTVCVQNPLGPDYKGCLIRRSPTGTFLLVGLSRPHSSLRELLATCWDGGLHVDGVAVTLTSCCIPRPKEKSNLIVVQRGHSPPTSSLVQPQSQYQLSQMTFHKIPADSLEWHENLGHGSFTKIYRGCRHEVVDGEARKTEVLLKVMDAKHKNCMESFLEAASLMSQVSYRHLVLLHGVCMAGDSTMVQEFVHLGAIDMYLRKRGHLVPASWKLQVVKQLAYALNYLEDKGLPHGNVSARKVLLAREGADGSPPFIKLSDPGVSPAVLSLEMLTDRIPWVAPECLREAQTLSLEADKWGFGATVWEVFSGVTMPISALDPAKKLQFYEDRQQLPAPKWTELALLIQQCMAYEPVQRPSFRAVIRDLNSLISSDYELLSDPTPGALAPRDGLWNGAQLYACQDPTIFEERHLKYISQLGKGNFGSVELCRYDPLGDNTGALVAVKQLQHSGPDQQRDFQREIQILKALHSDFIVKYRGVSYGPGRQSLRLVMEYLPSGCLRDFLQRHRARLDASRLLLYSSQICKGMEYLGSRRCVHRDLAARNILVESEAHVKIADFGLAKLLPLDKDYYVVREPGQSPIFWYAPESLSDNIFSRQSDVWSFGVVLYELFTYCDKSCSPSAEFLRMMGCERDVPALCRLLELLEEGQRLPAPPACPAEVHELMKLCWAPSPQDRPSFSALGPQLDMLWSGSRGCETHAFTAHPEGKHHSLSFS

PC-3 = test: Antitumor activity against human PC-3 cells xenografted in nude mouse assessed as inhibition of tumor growth at 10 mg/kg/day, ip administered for 42 days starting from 14 days post inoculation relative to control; format: functional; conditions: PC-3, 1008 h, time 42 day, read-out: TGI
[12] = target: T1, Tyrosine-protein kinase BTK; test: Inhibition of N-terminal His6-tagged human full length recombinant BTK expressed in baculovirus infected Sf21 insect cells using YIYGSFK as substrate preincubated for 5 mins followed by 33p-labeled ATP addition and measured after 1 hr by thin layer chromatography
BaF3 [13] = test: Antiproliferative activity against mouse BaF3 cells expressing […] FLT3 […] mutant assessed as inhibition of cell growth; format: functional, cell-based
MOLM-13 = test: Antiproliferative activity against human MOLM-13 cells assessed as inhibition of cell growth; format: functional, cell-based
MV4-11 = test: Antiproliferative activity against human MV4-11 cells assessed as inhibition of cell growth; format: functional, cell-based
BaF3 [14] = test: Antiproliferative activity against mouse BaF3 cells expressing […] FLT3 ITD F691L mutant assessed as inhibition of cell growth; format: functional, cell-based
BaF3 [15] = test: Antiproliferative activity against mouse BaF3 cells expressing […] FLT3 ITD/[…] double mutant assessed as inhibition of cell growth; format: functional, cell-based
BaF3 [16] = test: Antiproliferative activity against mouse BaF3 cells expressing […] FLT3 ITD mutant assessed as inhibition of cell growth; format: functional, cell-based
BaF3 [17] = test: Antiproliferative activity against mouse BaF3 cells expressing wild type FLT3 assessed as inhibition of cell growth; format: functional, cell-based
DOHH-2 [18] = test: Antitumor activity against human DOHH-2 cells xenografted in CB17/SCID mouse assessed as reduction in tumor growth at 25 mg/kg, po administered twice daily in combination with ibrutinib at 15 mg/kg for 30 days and measured twice a week relative to control; format: functional; design: scale not given: the % may be the effect or the level left; conditions: time 30 day
DOHH-2 [19] = test: Antitumor activity against human DOHH-2 cells xenografted in CB17/SCID mouse assessed as reduction in tumor growth at 50 mg/kg, po administered twice daily in combination with ibrutinib at 30 mg/kg for 30 days and measured twice a week relative to control; format: functional; design: scale not given: the % may be the effect or the level left; conditions: time 30 day
[20] = Inhibition of mTORC1 (unknown origin) expressed in HEK293T cells using 4EBP1 as substrate assessed as reduction in substrate phosphorylation preincubated for 30 mins followed by ATP addition and measured after 30 mins by Western blot analysis; design: species or system Homo sapiens
[21] = target: T1, Tyrosine-protein kinase BTK; test: Inhibition of BTK (unknown origin) assessed as residual activity at 200 nM relative to control
[22] = target: T3, Cytoplasmic tyrosine-protein kinase BMX (Homo sapiens) (UniProt P51813); test: Inhibition of BMX (unknown origin) assessed as residual activity at 200 nM relative to control
T3 sequence (whole entry): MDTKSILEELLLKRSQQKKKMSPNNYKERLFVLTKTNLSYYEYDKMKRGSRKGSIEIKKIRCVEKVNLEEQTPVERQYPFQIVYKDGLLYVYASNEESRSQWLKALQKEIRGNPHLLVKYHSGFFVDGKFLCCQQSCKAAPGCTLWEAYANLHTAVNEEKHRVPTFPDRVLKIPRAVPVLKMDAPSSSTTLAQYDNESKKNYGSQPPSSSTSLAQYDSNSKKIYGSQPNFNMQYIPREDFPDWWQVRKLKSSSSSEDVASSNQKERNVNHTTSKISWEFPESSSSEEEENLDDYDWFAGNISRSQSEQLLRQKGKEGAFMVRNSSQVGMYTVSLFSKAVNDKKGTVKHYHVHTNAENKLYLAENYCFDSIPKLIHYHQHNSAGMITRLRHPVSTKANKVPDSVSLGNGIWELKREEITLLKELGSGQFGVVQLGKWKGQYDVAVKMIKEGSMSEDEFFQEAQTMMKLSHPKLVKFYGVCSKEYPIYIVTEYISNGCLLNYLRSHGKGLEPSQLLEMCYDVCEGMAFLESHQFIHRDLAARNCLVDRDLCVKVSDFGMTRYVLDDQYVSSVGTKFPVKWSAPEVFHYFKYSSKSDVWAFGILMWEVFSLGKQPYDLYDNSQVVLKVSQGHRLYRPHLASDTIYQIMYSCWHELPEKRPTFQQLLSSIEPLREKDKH

T1 sequence (Q06187 whole entry): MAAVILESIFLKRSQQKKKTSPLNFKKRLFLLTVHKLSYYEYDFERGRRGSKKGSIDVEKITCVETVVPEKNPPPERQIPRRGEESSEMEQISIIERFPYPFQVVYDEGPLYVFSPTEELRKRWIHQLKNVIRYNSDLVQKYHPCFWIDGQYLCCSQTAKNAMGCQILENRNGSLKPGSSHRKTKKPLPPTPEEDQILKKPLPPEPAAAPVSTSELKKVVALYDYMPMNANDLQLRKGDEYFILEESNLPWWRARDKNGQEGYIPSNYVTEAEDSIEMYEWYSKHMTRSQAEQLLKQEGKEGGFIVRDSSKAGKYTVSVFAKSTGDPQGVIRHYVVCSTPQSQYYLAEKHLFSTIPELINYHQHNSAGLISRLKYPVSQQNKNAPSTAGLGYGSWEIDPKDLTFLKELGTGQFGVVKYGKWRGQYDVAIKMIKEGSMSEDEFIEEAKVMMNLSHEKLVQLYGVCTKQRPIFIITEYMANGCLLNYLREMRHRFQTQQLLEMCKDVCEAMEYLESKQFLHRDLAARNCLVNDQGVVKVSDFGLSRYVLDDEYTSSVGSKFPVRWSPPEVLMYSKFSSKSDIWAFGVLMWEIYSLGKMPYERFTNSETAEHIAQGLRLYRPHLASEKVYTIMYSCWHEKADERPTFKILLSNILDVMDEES
Sequence of Tyrosine-protein kinase HCK (P08631 whole entry): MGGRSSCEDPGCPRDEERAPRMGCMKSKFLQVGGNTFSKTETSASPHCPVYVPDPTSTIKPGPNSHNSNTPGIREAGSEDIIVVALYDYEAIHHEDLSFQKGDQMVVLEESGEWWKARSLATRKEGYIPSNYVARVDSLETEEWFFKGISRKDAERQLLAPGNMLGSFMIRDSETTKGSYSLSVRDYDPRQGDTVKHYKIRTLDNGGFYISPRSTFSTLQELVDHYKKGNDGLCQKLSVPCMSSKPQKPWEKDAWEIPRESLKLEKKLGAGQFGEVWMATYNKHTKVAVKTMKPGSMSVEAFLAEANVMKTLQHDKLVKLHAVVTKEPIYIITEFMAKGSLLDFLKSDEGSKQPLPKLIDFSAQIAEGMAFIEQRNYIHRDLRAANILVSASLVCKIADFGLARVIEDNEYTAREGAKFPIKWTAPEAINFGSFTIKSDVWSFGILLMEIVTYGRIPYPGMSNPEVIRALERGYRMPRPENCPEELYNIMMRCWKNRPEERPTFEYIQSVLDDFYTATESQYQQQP

Compound: C=CC(=O)N1CCC[C@@H](n2nc(-c3ccc(Oc4ccccc4)cc3)c3c(N)ncnc32)C1 [IBRUTINIB]
- Activity (DOHH-2 [1]): 57.9%
- Activity (DOHH-2 [2]): 38.1%
- IC50 (DOHH-2 [3]): 23 nM

Compound: CC[C@]1(O)C[C@@H]2CN(CCc3c([nH]c4ccccc34)[C@@](C(=O)OC)(c3cc4c(cc3OC)N(C)[C@H]3[C@@](O)(C(=O)OC)[C@H](OC(C)=O)[C@]5(CC)C=CCN6CC[C@]43[C@@H]65)C2)C1
- inhibition (Tubulin (Homo sapiens)): 66%

Compound: N#CSCc1ccc(CN2C(=O)C(=O)c3cc(Br)cc(Br)c32)cc1
- IC50 (RPMI-8226): 500 nM
- inhibition in vivo at 1 mg/kg (U-266 [4]): 50%
- inhibition (Tubulin (Homo sapiens)): 77%
- inhibition [5]: 50%
- IC50 [6]: 500 nM
- IC50 (U-266 [7]): 500 nM

Compound: Nc1ccc2c(c1)CC(n1nc(-c3cc(F)c4c(c3)NCCO4)c3c(N)ncnc31)C2 (stereo unspecified)
- Activity (DOHH-2 [8]): 45.2%
- IC50 (DOHH-2 [3]): 1340 nM

Compound: CN1CCN([C@H]2CC[C@H](n3nc(-c4ccc(Oc5ccccc5)cc4)c4c(N)ncnc43)CC2)CC1
- IC50 [9]: < 0.5 nM
- IC50 [10]: 0.92 nM

Compound: C=CC(=O)Nc1cccc(-c2c[nH]c3ncc(NC(=O)c4cccs4)cc23)c1
- IC50 [11]: > 10000 nM
- IC50 [10]: < 1 nM

Compound: CC(C)Cc1nc2cc3c(cc2[nH]c1=O)nc(NC(=O)c1ccc(-c2ccncc2)cc1)n3CCCN1CCCCC1
- inhibition in vivo at 10 mg/kg/day (PC-3): 70%
- IC50 [12]: 50 nM

Compound: Cc1cnc(-c2ccc(-c3ccc(NC(=O)Nc4cccc(C(F)(F)F)c4)cc3F)c3c2C(=O)NC3)[nH]1
- IC50 (BaF3 [13]): 8.26 nM
- IC50 (MOLM-13): 0.82 nM
- IC50 (MV4-11): 0.17 nM
- IC50 (BaF3 [14]): 0.43 nM
- IC50 (BaF3 [15]): 9.72 nM
- IC50 (BaF3 [16]): 0.3 nM
- IC50 (BaF3 [17]): 9.49 nM

Compound: CC[C@H](Nc1ncnc2[nH]cnc12)c1nc2cccc(F)c2c(=O)n1-c1ccccc1 [IDELALISIB]
- Activity (DOHH-2 [18]): 38.1%
- Activity (DOHH-2 [19]): 57.9%
- IC50 (DOHH-2 [3]): 860 nM

Compound: Nc1ccc(-c2ccc3ncc4ccc(=O)n(-c5cccc(C(F)(F)F)c5)c4c3c2)cn1
- IC50 [20]: 0.25 nM

Compound: C=CC(=O)Nc1cccc(-c2c[nH]c3ncccc23)c1
- Activity [21]: 18.2%
- Activity [22]: 2.7%
